≈ marks a conversion by molar mass, not a printed value. Where two headings read alike, the source gives them in different places.
Experiments:
Influenza A H1N1 subtype = experiment: Anti-influenza activity in MDCK cells, Influenza A H1N1; assay type: cell-based; conditions: for EC50 Influenza A H1N1 subtype MTS: cell viability, formazan-based MTS assay; for EC50 Influenza A H1N1 subtype visual CPE score: visual scoring of the CPE; for EC50: reference compounds
Source text: (§1) MDCK cells (Madin Darby canine kidney cells) have been used for the experiments shown in table 5 using standard procedures known in the art.

Influenza B = experiment: Anti-influenza activity in MDCK cells, Influenza B; assay type: cell-based; conditions: for EC50 Influenza B MTS: cell viability, formazan-based MTS assay; for EC50 Influenza B visual CPE score: visual scoring of the CPE; for EC50: reference compounds
Influenza A H3N2 subtype = experiment: Anti-influenza activity in MDCK cells, Influenza A H3N2; assay type: cell-based; conditions: for EC50 Influenza A H3N2 subtype MTS: cell viability, formazan-based MTS assay; for EC50 Influenza A H3N2 subtype visual CPE score: visual scoring of the CPE; for EC50: reference compounds
Source text: as §1

HIV-2 = experiment: Antiretrovirus assay, HIV-2; conditions: Table 1a
HIV-1 = conditions: Table 1a
CRFK cells [1] = conditions: cytotoxicity, feline corona virus test
Feline Corona virus = experiment: Activity on feline corona virus in CRFK cells; assay type: cell-based
[2] = test system: Herpes simplex virus-1 TK KOS-ACV^r; experiment: Antiviral activity, Herpes simplex virus-1 TK KOS-ACVr; assay type: cell-based; conditions: Human alphaherpesvirus 1, read-out: EC50 Herpes simplex virus-1 TK KOS-ACV^r
[3] = test system: Herpes simplex virus-1 (KOS); experiment: Antiviral activity, Herpes simplex virus-1 (KOS); assay type: cell-based; conditions: Human alphaherpesvirus 1; Table 4, reference compounds
[4] = test system: Vesicular stomatitis virus; experiment: microbe, parasite or virus in culture; assay type: cell-based; conditions: read-out: EC50 Vesicular stomatitis virus
[5] = test system: Herpes simples virus-2 (G); experiment: Antiviral activity, Herpes simplex virus-2 (G); assay type: cell-based; conditions: Human alphaherpesvirus 2; Table 4, reference compounds
Vaccinia virus = experiment: microbe, parasite or virus in culture; assay type: cell-based; conditions: Orthopoxvirus vaccinia, read-out: EC50 Vaccinia virus
[6] = test system: human corona (SARS) virus; experiment: microbe, parasite or virus in culture; assay type: cell-based; conditions: human corona (SARS) virus
CRFK cells [7] = conditions: cytotoxicity, human corona virus test

CCc1c(CNc2cccc(C(C)=NO)c2)c(CC)c(CNc2cc(C)cc(C)n2)c(CC)c1CNc1cc(C)cc(C)n1 [ABT5]
EC50 Influenza A H1N1 subtype MTS (Influenza A H1N1 subtype): >4 µg/mL | EC50 Influenza A H1N1 subtype visual CPE score (Influenza A H1N1 subtype): >4 µg/mL | EC50 Influenza B MTS (Influenza B): >4 µg/mL | EC50 Influenza B visual CPE score (Influenza B): >4 µg/mL | EC50 Influenza A H3N2 subtype MTS (Influenza A H3N2 subtype): >4 µg/mL | EC50 Influenza A H3N2 subtype visual CPE score (Influenza A H3N2 subtype): >4 µg/mL

CCc1c(CNc2cccc(CO)c2)c(CC)c(CNc2cc(C)cc(C)n2)c(CC)c1CNc1cc(C)cc(C)n1 [ABT6]
EC50 HIV-2 (HIV-2): >2 µg/mL | EC50 HIV-1 (HIV-1): >2 µg/mL

CCOC(=O)CNc1cccc(NCc2c(CC)c(CNc3cccc(C)n3)c(CC)c(CNc3cccc(C)n3)c2CC)n1 [AH29]
Feline Corona virus CC50 (CRFK cells [1]): 13.3 µg/mL | Feline Corona virus EC50 (Feline Corona virus): >4 µg/mL

CCc1c(CNc2cccc(C)n2)c(CC)c(CNc2cccc(NC(=O)Cc3ccccc3)n2)c(CC)c1CNc1cccc(C)n1 [AH30]
EC50 Influenza A H1N1 subtype MTS (Influenza A H1N1 subtype): >4 µg/mL | EC50 Influenza A H1N1 subtype visual CPE score (Influenza A H1N1 subtype): >4 µg/mL | EC50 Influenza B MTS (Influenza B): >4 µg/mL | EC50 Influenza B visual CPE score (Influenza B): >4 µg/mL | EC50 Influenza A H3N2 subtype MTS (Influenza A H3N2 subtype): >4 µg/mL | EC50 Influenza A H3N2 subtype visual CPE score (Influenza A H3N2 subtype): >4 µg/mL

Nc1nc2c(ncn2COCCO)c(=O)[nH]1 [Acyclovir]
EC50 [2]: 150 µM | EC50 [3]: 400 nM | EC50 [4]: > 250 µM | EC50 [5]: 80 nM | EC50 (Vaccinia virus): > 250 µM

NC12CC3CC(CC(C3)C1)C2 [Amantadin, reference compound]
EC50 (Influenza A H1N1 subtype; MTS, read-out: EC50 Influenza A H1N1 subtype MTS): 59.3 µM | EC50 (Influenza A H1N1 subtype; visual CPE, read-out: EC50 Influenza A H1N1 subtype visual CPE score): 58.5 µM | EC50 (Influenza B; MTS, read-out: EC50 Influenza B MTS): > 100 µM | EC50 (Influenza B; visual CPE, read-out: EC50 Influenza B visual CPE score): > 100 µM | EC50 (Influenza A H3N2 subtype; MTS, read-out: EC50 Influenza A H3N2 subtype MTS): 1600 nM | EC50 (Influenza A H3N2 subtype; visual CPE, read-out: EC50 Influenza A H3N2 subtype visual CPE score): 4000 nM

CCc1c(CNCC2COCCOCCOCCOCCO2)c(CC)c(CNc2cc(C)cc(C)n2)c(CC)c1CNc1cc(C)cc(C)n1 (stereo not drawn) [Co12]
EC50 HIV-2 (HIV-2): >4 µg/mL | Human Corona virus EC50 [6]: 1.9 ± 0.6 µg/mL | Feline Corona virus CC50 (CRFK cells [1]): 11 ± 0 µg/mL | Human Corona virus CC50 (CRFK cells [7]): 13 ± 1.2 µg/mL | EC50 HIV-1 (HIV-1): 1.35 ± 0.29 µg/mL (≈ 1.95 µM) | Feline Corona virus EC50 (Feline Corona virus): 1.4 ± 0.2 µg/mL

CCc1c(CC#N)c(CC)c(CNc2cc(C)cc(C)n2)c(CC)c1CNc1cc(C)cc(C)n1 [Co19]
EC50 HIV-2 (HIV-2): >2 µg/mL | Feline Corona virus CC50 (CRFK cells [1]): 10.8 µg/mL | EC50 HIV-1 (HIV-1): >2 µg/mL | Feline Corona virus EC50 (Feline Corona virus): >4 µg/mL

CCc1c(CN)c(CC)c(CNc2cc(C)cc(C)n2)c(CC)c1CNc1cc(C)cc(C)n1.Cl [Co28]
EC50 Influenza A H1N1 subtype MTS (Influenza A H1N1 subtype): >0.8 µg/mL | EC50 Influenza A H1N1 subtype visual CPE score (Influenza A H1N1 subtype): >0.8 µg/mL | EC50 Influenza B MTS (Influenza B): >0.8 µg/mL | EC50 Influenza B visual CPE score (Influenza B): >0.8 µg/mL | EC50 Influenza A H3N2 subtype MTS (Influenza A H3N2 subtype): >0.8 µg/mL | EC50 Influenza A H3N2 subtype visual CPE score (Influenza A H3N2 subtype): >0.8 µg/mL

CCc1c(CNc2cc(C)cc(C)n2)c(CC)c(CNc2ccc3ccc(C)nc3n2)c(CC)c1CNc1cc(C)cc(C)n1 [Co50]
EC50 HIV-2 (HIV-2): >2 µg/mL | EC50 HIV-1 (HIV-1): >2 µg/mL

CCc1c(CNc2cc(C)cc(C)n2)c(CC)c(CNc2ccc3ccc(C)nc3n2)c(CC)c1CNc1ccc2ccc(C)nc2n1 [Co54]
EC50 HIV-2 (HIV-2): >2 µg/mL | EC50 HIV-1 (HIV-1): >2 µg/mL

Cc1ccc2ccc(NCc3c(C)c(CNc4ccc5ccc(C)nc5n4)c(C)c(CNc4ccc5ccc(C)nc5n4)c3C)nc2n1 [Compound 24]
Human Corona virus EC50 [6]: 38 ± 1 µg/mL | Feline Corona virus CC50 (CRFK cells [1]): >100 µg/mL | Human Corona virus CC50 (CRFK cells [7]): >100 µg/mL | Feline Corona virus EC50 (Feline Corona virus): 42 ± 0 µg/mL
